Test results: patent US20210261642A1, “SOLUBILITY OF GLP-1 PEPTIDE” (Novo Nordisk A/S, priority 2017, published 2021)

Assay: Assay (I): Determination of Solubility (96-well plate, pH 3.0-11.0, organic solvent 0-70% w/w, UV absorption at 280 nm)
Format: physicochemical
Settings: Method 2 (precipitation), 5° C.
Description: Assay (I): Determination of Solubility
96-Well Plate Preparation
96-well plates containing target peptide in a solid form were prepared in one of two ways:
Method 1 (evaporation): Addition of 100 μl stock solution of said peptide at a concentration of 4-6 mg/ml to each well of a 96-well half area plate (150 μl well size). Subsequently the solvent was evaporated by applying a vacuum until the solvent was completely removed.
Method 2 (precipitation): Addition of a certain volume of a stock solution of said peptide containing to each well of a 96-well half area plate followed by the addition of a certain volume of concentrated phosphoric acid to obtain a pH of 4.6 followed by addition of a certain volume of ethanol resulting in a final ethanol concentration of 20% v/v. Subsequently the plate was stored at 4° C. for 1 h and then centrifuged at 4,000 rpm for 20 min. Finally the supernatant was removed. The concentration of the stock solution was chosen in a way that the final amount of peptide after supernatant removal was >0.4 mg per well.
In both cases the stock solution was prepared by adding de-ionized water to a certain amount of powder of said peptide followed by a stepwise addition of small amounts of a concentrated sodium hydroxide solution until said peptide was completely in solution.
To determine solubility of a target peptide at different pH and organic solvent concentrations, two different buffer systems were used in independent experiments to cover the whole range from pH 3.0 to pH 11.0. Buffer system 1 covers pH 3.0-7.5 and buffer system 2 covers pH 7.5-11.0. For each buffer system 96 different solvent compositions were premixed in the following way: • 1. A low pH buffer (adjusted to either pH 3.0 or pH 7.5) and a high pH buffer (adjusted to either pH 7.5 or pH 11.0) were mixed at 8 different ratios to obtain values between pH 3.0 and pH 7.5 or pH 7.5 and pH 11.0, respectively. The total volume after mixing was 300 μl. • 2. 12 different amounts of organic solvent were then added to these buffers to obtain organic solvent (e.g. ethanol) concentrations between 0 and 70% w/w. • 3. Water was then added to obtain a total weight of 1.0 g of solvent in each well.
After preparing the 96 different solvent systems, 100 μl of each system was transferred to the 96-well plate containing the solid form of the target peptide (prepared as described in the section “96-well plate preparation”). The plate was then stored at a given temperature (between 5° C. and 70° C.) for a given time on a rotating shaker set to 400 rpm. At regular time intervals the plate was centrifuged (4,000 rpm for 10 min) and a 10 μl sample was taken from each well. The samples were then analysed by UV absorption at 280 nm for peptide quantification. Peptide concentration results are given as UV absorption at 280 nm of the sample subtracted UV absorption at 280 nm of a well comprising 10 μl water.
The buffers used were as follows: • Buffer system 1 (for the pH range from pH 3.0-7.5)
• Buffer system 2 (for the pH ranae from pH 7.5-11.0)
Solubility of liraglutide was determined using Assay (I) described herein. Liraglutide was prepared using Method 1 (evaporation) or Method 2 (precipitation) as described in subsection “96-well plate preparation”.

- GLP-1 peptide concentration (MeCN 57.3% w/w, pH 9.50, 5 min, before removal of outliers): 0.5 mg/mL
- GLP-1 peptide concentration (MeCN 57.3% w/w, pH 9.50, 180 min, after removal of outliers): >4.0 mg/mL
- GLP-1 peptide concentration (MeCN 57.3% w/w, pH 9.50, 180 min, before removal of outliers): >4.0 mg/mL
- GLP-1 peptide concentration (MeCN 57.3% w/w, pH 9.50, 24 h, after removal of outliers): 2.5 mg/mL
- GLP-1 peptide concentration (MeCN 57.3% w/w, pH 9.50, 24 h, before removal of outliers): 2.5 mg/mL
- GLP-1 peptide concentration (MeCN 57.3% w/w, pH 10.00, 5 min, after removal of outliers): 0.4 mg/mL
- GLP-1 peptide concentration (MeCN 57.3% w/w, pH 10.00, 5 min, before removal of outliers): 0.4 mg/mL
- GLP-1 peptide concentration (MeCN 57.3% w/w, pH 10.00, 180 min, after removal of outliers): >4.0 mg/mL
- GLP-1 peptide concentration (MeCN 57.3% w/w, pH 10.00, 180 min, before removal of outliers): >4.0 mg/mL
- GLP-1 peptide concentration (MeCN 57.3% w/w, pH 10.00, 24 h, after removal of outliers): 1.1 mg/mL
- GLP-1 peptide concentration (MeCN 57.3% w/w, pH 10.00, 24 h, before removal of outliers): 1.1 mg/mL
- GLP-1 peptide concentration (MeCN 57.3% w/w, pH 10.50, 5 min, after removal of outliers): 0.5 mg/mL
- GLP-1 peptide concentration (MeCN 57.3% w/w, pH 10.50, 5 min, before removal of outliers): 0.5 mg/mL
- GLP-1 peptide concentration (MeCN 57.3% w/w, pH 10.50, 180 min, after removal of outliers): >4.0 mg/mL
- GLP-1 peptide concentration (MeCN 57.3% w/w, pH 10.50, 180 min, before removal of outliers): >4.0 mg/mL
- GLP-1 peptide concentration (MeCN 57.3% w/w, pH 10.50, 24 h, after removal of outliers): 1.7 mg/mL
- GLP-1 peptide concentration (MeCN 57.3% w/w, pH 10.50, 24 h, before removal of outliers): 1.7 mg/mL
- GLP-1 peptide concentration (MeCN 57.3% w/w, pH 11.00, 5 min, after removal of outliers): 0.5 mg/mL
- GLP-1 peptide concentration (MeCN 57.3% w/w, pH 11.00, 5 min, before removal of outliers): 0.5 mg/mL
- GLP-1 peptide concentration (MeCN 57.3% w/w, pH 11.00, 180 min, after removal of outliers): >4.0 mg/mL
- GLP-1 peptide concentration (MeCN 57.3% w/w, pH 11.00, 180 min, before removal of outliers): >4.0 mg/mL
- GLP-1 peptide concentration (MeCN 57.3% w/w, pH 11.00, 24 h, after removal of outliers): 3.6 mg/mL
- GLP-1 peptide concentration (MeCN 57.3% w/w, pH 11.00, 24 h, before removal of outliers): 3.6 mg/mL
- GLP-1 peptide concentration (MeCN 63.6% w/w, pH 7.50, 5 min, before removal of outliers): 0.4 mg/mL
- GLP-1 peptide concentration (MeCN 63.6% w/w, pH 7.50, 180 min, before removal of outliers): 1.0 mg/mL
- GLP-1 peptide concentration (MeCN 63.6% w/w, pH 7.50, 24 h, before removal of outliers): 2.4 mg/mL
- GLP-1 peptide concentration (MeCN 63.6% w/w, pH 8.00, 5 min, after removal of outliers): 0.5 mg/mL
- GLP-1 peptide concentration (MeCN 63.6% w/w, pH 8.00, 5 min, before removal of outliers): 0.5 mg/mL
- GLP-1 peptide concentration (MeCN 63.6% w/w, pH 8.00, 180 min, after removal of outliers): 1.2 mg/mL
- GLP-1 peptide concentration (MeCN 63.6% w/w, pH 8.00, 180 min, before removal of outliers): 1.2 mg/mL
- GLP-1 peptide concentration (MeCN 63.6% w/w, pH 8.00, 24 h, after removal of outliers): 3.2 mg/mL
- GLP-1 peptide concentration (MeCN 63.6% w/w, pH 8.00, 24 h, before removal of outliers): 3.2 mg/mL
- GLP-1 peptide concentration (MeCN 63.6% w/w, pH 8.50, 5 min, after removal of outliers): 0.5 mg/mL
- GLP-1 peptide concentration (MeCN 63.6% w/w, pH 8.50, 5 min, before removal of outliers): 0.5 mg/mL
- GLP-1 peptide concentration (MeCN 63.6% w/w, pH 8.50, 180 min, after removal of outliers): 3.1 mg/mL
- GLP-1 peptide concentration (MeCN 63.6% w/w, pH 8.50, 180 min, before removal of outliers): 3.1 mg/mL
- GLP-1 peptide concentration (MeCN 63.6% w/w, pH 8.50, 24 h, after removal of outliers): 3.1 mg/mL
- GLP-1 peptide concentration (MeCN 63.6% w/w, pH 8.50, 24 h, before removal of outliers): 3.1 mg/mL
- GLP-1 peptide concentration (MeCN 63.6% w/w, pH 9.00, 5 min, after removal of outliers): 0.5 mg/mL
- GLP-1 peptide concentration (MeCN 63.6% w/w, pH 9.00, 5 min, before removal of outliers): 0.5 mg/mL
- GLP-1 peptide concentration (MeCN 63.6% w/w, pH 9.00, 180 min, after removal of outliers): 1.7 mg/mL
- GLP-1 peptide concentration (MeCN 63.6% w/w, pH 9.00, 180 min, before removal of outliers): 1.7 mg/mL
- GLP-1 peptide concentration (MeCN 63.6% w/w, pH 9.00, 24 h, after removal of outliers): >4.0 mg/mL
- GLP-1 peptide concentration (MeCN 63.6% w/w, pH 9.00, 24 h, before removal of outliers): >4.0 mg/mL
- GLP-1 peptide concentration (MeCN 63.6% w/w, pH 9.50, 5 min, after removal of outliers): 0.6 mg/mL
- GLP-1 peptide concentration (MeCN 63.6% w/w, pH 9.50, 5 min, before removal of outliers): 0.6 mg/mL
- GLP-1 peptide concentration (MeCN 63.6% w/w, pH 9.50, 180 min, after removal of outliers): 2.9 mg/mL
- GLP-1 peptide concentration (MeCN 63.6% w/w, pH 9.50, 180 min, before removal of outliers): 2.9 mg/mL
- GLP-1 peptide concentration (MeCN 63.6% w/w, pH 9.50, 24 h, after removal of outliers): 1.2 mg/mL
- GLP-1 peptide concentration (MeCN 63.6% w/w, pH 9.50, 24 h, before removal of outliers): 1.2 mg/mL
- GLP-1 peptide concentration (MeCN 63.6% w/w, pH 10.00, 5 min, after removal of outliers): 0.4 mg/mL
Compound: CCCCCCCCCCCCCCCC(=O)N[C@@H](CCC(=O)NCCCC[C@H](NC(=O)[C@H](C)NC(=O)[C@H](C)NC(=O)[C@H](CCC(N)=O)NC(=O)CNC(=O)[C@H](CCC(=O)O)NC(=O)[C@H](CC(C)C)NC(=O)[C@H](Cc1ccc(O)cc1)NC(=O)[C@H](CO)NC(=O)[C@H](CO)NC(=O)[C@@H](NC(=O)[C@H](CC(=O)O)NC(=O)[C@H](CO)NC(=O)[C@@H](NC(=O)[C@H](Cc1ccccc1)NC(=O)[C@@H](NC(=O)CNC(=O)[C@H](CCC(=O)O)NC(=O)[C@H](C)NC(=O)[C@@H](N)Cc1cnc[nH]1)[C@@H](C)O)[C@@H](C)O)C(C)C)C(=O)N[C@@H](CCC(=O)O)C(=O)N[C@@H](Cc1ccccc1)C(=O)N[C@H](C(=O)N[C@@H](C)C(=O)N[C@@H](Cc1c[nH]c2ccccc12)C(=O)N[C@@H](CC(C)C)C(=O)N[C@H](C(=O)N[C@@H](CCCNC(=N)N)C(=O)NCC(=O)N[C@@H](CCCNC(=N)N)C(=O)NCC(=O)O)C(C)C)[C@@H](C)CC)C(=O)O [liraglutide, Arg34,Lys26-(N-epsilon-(gamma-L-glutamyl(N-alfa-hexadecanoyl)))-GLP-1(7-37)]
